Measurements reported in patent US20090170860A1, “Use of PARP-1 Inhibitors” (PHARMA MAR, S.A., SOCIEDAD UNIPERSONAL, priority 2005, published 2009).
Like-named read-outs stand apart in the source and are kept apart here.

Key:
[1] = test system: SW620 colon carcinoma cells; test: MTS cytotoxicity assay, ET-743 with or without PARP inhibitor; assay type: cell-based; conditions: for IC50: 72 hours, MTS; for increased sensitization of cells to ET-743: SW620, PARP inhibitor (nicotinamide 10 mM or NU1025 100 μM) plus ET-743 versus ET-743 alone
Experimental: Four hours later, media containing ET-743 and the PARP inhibitor was washed out and replaced with another fixed dose of PARP inhibitor. Finally, 4 hours later, a final fixed dose of PARP inhibitor was added. 72 hours following the initial treatment, an MTS cytotoxicity assay was performed.

[2] = test system: PARP-1 +/+ and −/− mouse embryonic fibroblasts (MEFs); test: MTS cytotoxicity assay in PARP-1 +/+ and −/− MEFs; assay type: cell-based; conditions: PARP-1 −/− versus +/+ MEFs, 72 hours after treatment
Experimental: PARP-1 +/+and −/− mouse embryonic fibroblasts (MEFs) were seeded into 96-well plates at a density of 5,000 cells/well. After 24 hours, cells were treated with serially diluted concentrations of ET-743. 72 hours following the initial treatment, an MTS (3-(4,5-dimethylthiazol-2-yl)-5([…])-2-(4-sulfophenyl)-2H-tetrazolium) cytotoxicity assay was performed. Results were plotted as percent cellular viability versus ET-743 or Zalypsis® concentration (FIGS. 1a and 1b, respectively).

PARP = PARP (Homo sapiens, UniProt P09874); conditions: cited from earlier work
PARP, sequence (P09874 whole entry): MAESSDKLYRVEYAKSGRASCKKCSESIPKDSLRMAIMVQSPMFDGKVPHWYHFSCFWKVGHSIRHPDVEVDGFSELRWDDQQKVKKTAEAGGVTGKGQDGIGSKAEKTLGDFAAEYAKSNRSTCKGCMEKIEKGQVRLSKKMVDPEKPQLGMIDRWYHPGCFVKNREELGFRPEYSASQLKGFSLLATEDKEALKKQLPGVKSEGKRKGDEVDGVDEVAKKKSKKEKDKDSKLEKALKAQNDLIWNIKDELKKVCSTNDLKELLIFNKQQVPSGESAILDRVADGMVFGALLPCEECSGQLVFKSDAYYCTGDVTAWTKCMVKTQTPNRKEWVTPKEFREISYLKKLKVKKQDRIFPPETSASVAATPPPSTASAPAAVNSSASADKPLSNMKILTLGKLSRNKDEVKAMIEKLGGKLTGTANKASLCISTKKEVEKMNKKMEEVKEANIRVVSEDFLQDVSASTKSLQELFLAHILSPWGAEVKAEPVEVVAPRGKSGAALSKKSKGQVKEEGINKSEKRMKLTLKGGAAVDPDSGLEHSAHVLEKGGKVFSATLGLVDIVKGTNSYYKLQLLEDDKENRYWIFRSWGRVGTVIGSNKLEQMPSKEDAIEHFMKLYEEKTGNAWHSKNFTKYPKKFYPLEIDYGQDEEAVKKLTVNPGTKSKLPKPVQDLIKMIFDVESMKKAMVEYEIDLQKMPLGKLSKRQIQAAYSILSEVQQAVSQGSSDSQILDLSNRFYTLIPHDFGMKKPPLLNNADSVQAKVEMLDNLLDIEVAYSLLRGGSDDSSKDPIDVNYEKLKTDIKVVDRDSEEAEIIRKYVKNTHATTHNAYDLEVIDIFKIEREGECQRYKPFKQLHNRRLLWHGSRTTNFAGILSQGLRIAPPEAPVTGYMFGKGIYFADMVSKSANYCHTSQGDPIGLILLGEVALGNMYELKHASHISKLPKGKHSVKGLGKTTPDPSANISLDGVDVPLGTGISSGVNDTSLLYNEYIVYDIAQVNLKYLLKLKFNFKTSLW

COc1cc2c(cc1O)CCN[C@]21CS[C@@H]2c3c(OC(C)=O)c(C)c4c(c3[C@H](COC1=O)N1[C@@H]2[C@H]2c3c(cc(C)c(OC)c3O)C[C@@H]([C@@H]1O)N2C)OCO4 [ET-743, Ecteinascidin-743]
IC50 ([1]; Homo sapiens, SW-620, SW620, ET-743 alone, NU1025 experiment, read-out: IC50 ET-743 alone (FIG. 2b)): 1.8 nM | IC50 ([1]; Homo sapiens, SW-620, SW620, ET-743 alone, nicotinamide experiment, read-out: IC50 ET-743 alone (FIG. 2a)): 2 nM | IC50 ([1]; Homo sapiens, SW-620, SW620, NU1025 100 μM, 2 hour pre-treatment and repeated fixed doses, read-out: IC50 ET-743 in combination with NU1025 (FIG. 2b)): 0.37 nM | IC50 ([1]; Homo sapiens, SW-620, SW620, nicotinamide 10 mM, 2 hour pre-treatment and repeated fixed doses, read-out: IC50 ET-743 in combination with nicotinamide (FIG. 2a)): 0.41 nM | increase in cellular sensitivity on loss of PARP-1 [2]: ~30 fold

Cc1nc2c(O)cccc2c(=O)[nH]1 [NU1025]
potency as PARP inhibitor relative to nicotinamide (PARP): up to 1,000 times | cytotoxicity, PARP inhibitor treatment alone ([1]; SW620, NU1025 alone (100 μM), versus untreated cells): no increased level of cytotoxicity above the untreated cells | increased sensitization of cells to ET-743 [1]: 4.8 fold

COc1c(C)cc2c(c1O)[C@@H]1[C@@H]3Cc4c(OC(C)=O)c(C)c5c(c4[C@H](CNC(=O)/C=C/c4cccc(C(F)(F)F)c4)N3[C@@H](O)[C@H](C2)N1C)OCO5 [Zalypsis®]
increase in cellular sensitivity on loss of PARP-1 [2]: 110 fold

NC(=O)c1cccnc1 [nicotinamide]
inhibition at 10000 µM ([1]; Homo sapiens, SW-620, SW620, nicotinamide alone (10 mM), read-out: cell death, PARP inhibitor treatment alone): ~20% | increased sensitization of cells to ET-743 [1]: 4.9 fold
